Assay results: US11459338B2, “Heterocyclic compounds as PRMT5 inhibitors” (JUBILANT EPISCRIBE LLC, priority 2018, dated 2022)

Experiments:
PRMT5/MEP50 = biological target: T1, PRMT5/MEP50 (Homo sapiens, UniProt O14744); assay: PRMT5/MEP50 enzyme assay on peptide substrates (3H-SAM Flashplate); assay type: biochemical; details: PRMT5/MEP50 10 nM, H4 1-15aa peptide 100 nM, 3H-SAM 1 μM
T1 construct: Full-length human PRMT5 (NP_006100)
Text: General materials like S-adenocylmethionine (SAM), S-adenosylhomocysteine (SAH), Tris-HCl, DTT, […] (BSA) and Tween-20 were purchased from Sigma-Aldrich. 3H-SAM and 384-well streptavidin Flashplates were purchased from Perkin Elmer. Substrates that were used were Peptide representative of human Histone 4 residues 1-15 which was purchased from Rockland antibodies and assays.
PRMT5/MEP50 Enzyme assay on Peptide Substrates.
The assays were all performed in a buffer consisting of 50 mMTris-HCl, pH 8, 1 mM DTT, 0.01% BSA, 0.01% Tween-20, prepared on the day of use. Test compounds were diluted 3-fold in assay buffer (final DMSO concentration of 1%) and added into a 384-well OptiPlate (PerkinElmer, #6007290). A cocktail (10 μL) of PRMT5/MEP50 enzyme and the peptide was added to the wells. The compounds were allowed to incubate with PRMT5/MEP50 for 30 min at room temperature, then 5 μL of ^3H-SAM was added to initiate the reaction. The final concentrations of the components were as follows: PRMT5/MEP50-10 nM, H4, 1-15aa peptide-100 nM, ^3H-SAM-1 μM. The assays were stopped by the addition of 1 mM SAH. 25 μL of the reaction from the 384-well OptiPlate was then transferred to a 384-well Flashplate and the biotinylated peptides were allowed to bind to the streptavidin surface for at least 1 h, before being washed twice with 50 mMTris-HCl, pH 8, 0.1% Tween-20. The plates were then read in a PerkinElmer Topcount plate reader to measure the quantity of ^3H-labeled peptide bound to the Flashplate surface measured as disintegrations per minute (dpm), also referred to as counts per minute (cpm).
The IC50 values were calculated using a 4-parameter variable slope fit algorithm (cpm—counts per minute, cmpd—signal in assay well, and cpmmax and cpmmin mare the respective minimum and maximum signal controls).

Z-138 cells = assay: Z-138 long term proliferation assay (Cell Titer Glo); assay type: cell-based; details: Homo sapiens, 192 h; Z-138 cells, cell viability, day 8; read-out: PRMT5 Z138 GI50 Day 8 μM
Method: A compound source plate was prepared by performing ten-point 3-fold dilution in DMSO, such that the final top concentration of the compound was 10 μM, and DMSO was 0.3%. The total volume of compounds added was 20 μL. The cells were incubated for 96 h at 37° C., 5% CO2. […] The cells were re-treated with the compounds and incubated for an additional four days. Cell viability was measured on both day 4 and day 8, by adding 25 μL of Cell Titer Glo reagent to an equal volume of cell suspension. Luminescence was read on a PerkinElmer Victor3 multiplate reader. The concentration of compound inhibiting cell viability by 50% was determined using a 4-parameter, variable slope fit of the normalized dose response curves.

T1 sequence (O14744 whole entry): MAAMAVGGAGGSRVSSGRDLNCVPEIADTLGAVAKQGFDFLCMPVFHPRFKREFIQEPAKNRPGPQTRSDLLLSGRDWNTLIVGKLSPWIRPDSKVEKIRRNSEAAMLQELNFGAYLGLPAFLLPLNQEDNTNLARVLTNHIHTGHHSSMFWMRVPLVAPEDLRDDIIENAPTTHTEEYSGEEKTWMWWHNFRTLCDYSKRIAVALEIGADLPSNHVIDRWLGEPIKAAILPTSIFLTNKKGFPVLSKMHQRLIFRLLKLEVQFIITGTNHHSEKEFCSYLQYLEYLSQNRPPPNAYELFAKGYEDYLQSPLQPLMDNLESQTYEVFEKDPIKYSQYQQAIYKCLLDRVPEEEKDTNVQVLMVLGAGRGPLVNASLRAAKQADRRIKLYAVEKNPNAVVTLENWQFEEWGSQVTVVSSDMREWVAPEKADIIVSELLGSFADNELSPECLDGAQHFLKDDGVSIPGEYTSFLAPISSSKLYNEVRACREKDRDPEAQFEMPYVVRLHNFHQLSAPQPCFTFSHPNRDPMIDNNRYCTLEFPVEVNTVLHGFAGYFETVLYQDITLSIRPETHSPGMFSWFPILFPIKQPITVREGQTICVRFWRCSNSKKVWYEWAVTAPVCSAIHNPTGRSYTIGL
T1 sequence (Q9BQA1 whole entry partner): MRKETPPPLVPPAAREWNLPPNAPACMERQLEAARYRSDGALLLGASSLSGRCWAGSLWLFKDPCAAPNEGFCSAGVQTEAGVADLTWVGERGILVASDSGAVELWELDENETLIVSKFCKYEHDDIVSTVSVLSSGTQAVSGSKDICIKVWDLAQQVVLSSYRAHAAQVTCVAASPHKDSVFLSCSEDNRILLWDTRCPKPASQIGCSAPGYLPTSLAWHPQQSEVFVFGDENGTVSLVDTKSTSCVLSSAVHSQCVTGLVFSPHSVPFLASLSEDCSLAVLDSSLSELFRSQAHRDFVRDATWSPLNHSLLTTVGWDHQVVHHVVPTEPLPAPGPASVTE

SMILES	IC50 (PRMT5/MEP50) [nM]	GI50 (Z-138 cells) [nM]
O=C(NC[C@H](O)CN1CCc2ccccc2C1)c1cn2cc(N3CC(F)(F)C3)ncc2n1 [Example 58, (S)-6-(3,3-difluoroazetidin-1-yl)-N-(3-(3,4-dihydroisoquinolin-2(1H)-yl)-2-hydroxypropyl)imidazo[1,2-a]pyrazine-2-carboxamide]	1000 to 5000	1000 to 5000
O=C(NC[C@H](O)CN1CCc2ccccc2C1)c1cn2cc(N3CC(F)(F)C3)ccc2n1 [Example 59, (S)-6-(3,3-difluoroazetidin-1-yl)-N-(3-(3,4-dihydroisoquinolin-2(1H)-yl)-2-hydroxypropyl)imidazo[1,2-a]pyridine-2-carboxamide]	1000 to 5000	1000 to 5000
O=C(NC[C@H](O)CN1CCc2ccccc2C1)c1cn2cc(C3(O)COC3)ccc2n1 [Example 61, (S)—N-(3-(3,4-dihydroisoquinolin-2(1H)-yl)-2-hydroxypropyl)-6-(3-hydroxyoxetan-3-yl)imidazo[1,2-a]pyridine-2-carboxamide]	1000 to 5000	1000 to 5000
Cn1ccc(-c2ccn3nc(C(=O)NC[C@H](O)CN4CCc5ccccc5C4)cc3n2)cc1=O [Example 63, (S)—N-(3-(3,4-dihydroisoquinolin-2(1H)-yl)-2-hydroxypropyl)-5-(1-methyl-2-oxo-1,2-dihydropyridin-4-yl)pyrazolo[1,5-a]pyrimidine-2-carboxamide]	10 to 1000	1000 to 5000
Cc1c(C(=O)NC[C@H](O)CN2CCc3ccccc3C2)nc2cnc(-c3cnn(C)c3)cn12 [Example 64, (S)—N-(3-(3,4-dihydroisoquinolin-2(1H)-yl)-2-hydroxypropyl)-3-methyl-6-(1-methyl-1H-pyrazol-4-yl)imidazo[1,2-a]pyrazine-2-carboxamide]	10 to 1000	10 to 1000
Cc1c(C(=O)NC[C@H](O)CN2CCc3ccccc3C2)nc2cnc(-c3ccn(C)c(=O)c3)cn12 [Example 65, (S)—N-(3-(3,4-dihydroisoquinolin-2(1H)-yl)-2-hydroxypropyl)-3-methyl-6-(1-methyl-2-oxo-1,2-dihydropyridin-4-yl)imidazo[1,2-a]pyrazine-2-carboxamide]	10 to 1000	10 to 1000
Cc1c(C(=O)NC[C@H](O)CN2CCc3ccccc3C2)nc2cnc(-c3ccc(=O)n(C)c3)cn12 [Example 66, (S)—N-(3-(3,4-dihydroisoquinolin-2(1H)-yl)-2-hydroxypropyl)-3-methyl-6-(1-methyl-6-oxo-1,6-dihydropyridin-3-yl)imidazo[1,2-a]pyrazine-2-carboxamide]	10 to 1000	10 to 1000
O=C(NC[C@H](O)CN1CCc2ccccc2C1)c1cn2cc(N3CCC(F)C3)ccc2n1 (stereo partly drawn) [Example 70, N—((S)-3-(3,4-dihydroisoquinolin-2(1H)-yl)-2-hydroxypropyl)-6-(3-fluoropyrrolidin-1-yl)imidazo[1,2-a]pyridine-2-carboxamide]	10 to 1000	1000 to 5000
CN1CCN(c2ccc3nc(C(=O)NC[C@H](O)CN4CCc5ccccc5C4)cn3c2)CC1 [Example 71, (S)—N-(3-(3,4-dihydroisoquinolin-2(1H)-yl)-2-hydroxypropyl)-6-(4-methylpiperazin-1-yl)imidazo[1,2-a]pyridine-2-carboxamide]	10 to 1000	1000 to 5000
O=C(NC[C@H](O)CN1CCc2ccccc2C1)c1cn2cc(N3CCOCC3)ccc2n1 [Example 72, (S)—N-(3-(3,4-dihydroisoquinolin-2(1H)-yl)-2-hydroxypropyl)-6-morpholinoimidazo[1,2-a]pyridine-2-carboxamide]	10 to 1000	1000 to 5000
N#Cc1ccc(-c2cn3cc(C(=O)NC[C@H](O)CN4CCc5ccccc5C4)nc3cn2)cc1 [Example 74, (S)-6-(4-cyanophenyl)-N-(3-(3,4-dihydroisoquinolin-2(1H)-yl)-2-hydroxypropyl)imidazo[1,2-a]pyrazine-2-carboxamide]	10 to 1000	10 to 1000
O=C(NC[C@H](O)[C@@H](O)CN1CCc2ccccc2C1)c1cn2cc(C(F)(F)F)ccc2n1 [Example 76, N-((2S,3S)-4-(3,4-dihydroisoquinolin-2(1H)-yl)-2,3-dihydroxybutyl)-6-(trifluoromethyl)imidazo[1,2-a]pyridine-2-carboxamide]	10 to 1000	10 to 1000
O=C(NC[C@@H](O)[C@H](O)CN1CCc2ccccc2C1)c1cn2cc(C(F)(F)F)ccc2n1 [Example 77, N-((2R,3R)-4-(3,4-dihydroisoquinolin-2(1H)-yl)-2,3-dihydroxybutyl)-6-(trifluoromethyl)imidazo[1,2-a]pyridine-2-carboxamide]	10 to 1000	10 to 1000
Cc1nc(-c2ccc3nc(C(=O)NC[C@H](O)[C@@H](O)CN4CCc5ccccc5C4)cn3c2)no1 [Example 78, N-((2S,3S)-4-(3,4-dihydroisoquinolin-2(1H)-yl)-2,3-dihydroxybutyl)-6-(5-methyl-1,2,4-oxadiazol-3-yl)imidazo[1,2-a]pyridine-2-carboxamide]	10 to 1000	10 to 1000

The next lines start with results.

IC50 (PRMT5/MEP50) [nM]	SMILES	GI50 (Z-138 cells) [nM]
1000 to 5000	Cc1c(C(=O)NC[C@H](O)CN2CCc3ccccc3C2)nc2ccc(C(F)(F)F)nn12 [Example 54, (S)—N-(3-(3,4-dihydroisoquinolin-2(1H)-yl)-2-hydroxypropyl)-3-methyl-6-(trifluoromethyl)imidazo[1,2-b]pyridazine-2-carboxamide]	1000 to 5000
1000 to 5000	Cc1cn2c(C)c(C(=O)NC[C@H](O)CN3CCc4ccccc4C3)nc2cn1 [Example 55, (S)—N-(3-(3,4-dihydroisoquinolin-2(1H)-yl)-2-hydroxypropyl)-3,6-dimethylimidazo[1,2-a]pyrazine-2-carboxamide]	1000 to 5000
1000 to 5000	Cc1ccc2nc(C(=O)NC[C@H](O)CN3CCc4ccccc4C3)cn2n1 [Example 56, (S)—N-(3-(3,4-dihydroisoquinolin-2(1H)-yl)-2-hydroxypropyl)-6-methylimidazo[1,2-b]pyridazine-2-carboxamide]	> 5000
1000 to 5000	Cc1cn2cc(C(=O)NC[C@H](O)CN3CCc4ccccc4C3)nc2cn1 [Example 57]	1000 to 5000
1000 to 5000	O=C(NC[C@H](O)CN1CCc2ccccc2C1)c1cc2nc(C(F)(F)F)ccn2n1 [Example 60, (S)—N-(3-(3,4-dihydroisoquinolin-2(1H)-yl)-2-hydroxypropyl)-5-(trifluoromethyl)pyrazolo[1,5-a]pyrimidine-2-carboxamide]	1000 to 5000
1000 to 5000	Cn1cc(-c2ccn3nc(C(=O)NC[C@H](O)CN4CCc5ccccc5C4)cc3n2)cn1 [Example 62, (S)—N-(3-(3,4-dihydroisoquinolin-2(1H)-yl)-2-hydroxypropyl)-5-(1-methyl-1H-pyrazol-4-yl)pyrazolo[1,5-a]pyrimidine-2-carboxamide]	1000 to 5000
1000 to 5000	Cc1ccn2nc(C(=O)NC[C@H](O)CN3CCc4ccccc4C3)c(F)c2n1 [Example 67]	> 5000
> 5000	O=C(NC[C@H](O)CN1CCc2ccccc2C1)c1nn2ccc(C(F)(F)F)nc2c1F [Example 68, (S)—N-(3-(3,4-dihydroisoquinolin-2(1H)-yl)-2-hydroxypropyl)-3-fluoro-5-(trifluoromethyl)pyrazolo[1,5-a]pyrimidine-2-carboxamide]	> 5000
